Reference: patent publication US20250332112A1, “IONIZABLE CATIONIC LIPIDS FOR LIPID NANOPARTICLES” (GENEVANT SCIENCES GMBH, priority 2022, published 2025)

What was measured:
[1] = system: luciferase activity in the liver; test: Luciferase activity in liver after intravenous luciferase mRNA LNP; type: in vivo; settings: Table 12; 0.5 mg/kg IV, 6 h post-IV administration, BALB/c mice (n = 4)
[2] = Parent ionizable lipid remaining in liver at 6 h after luciferase mRNA LNP (LC-MS); type: in vivo; settings: Table 18; 6 h after IV 0.5 mg/kg Luciferase mRNA LNP, female BALB/c mice (n = 4)
[3] = Lipid clearance from liver over time after human OTC mRNA LNP (LC-MS); type: in vivo; settings: IV 0.5 mg/kg human OTC mRNA LNP, male C57BL/6 mice (n = 4)
Procedure: LNP formulations encapsulating ornithine transcarbamylase mRNA were injected intravenously at the specified dose levels to male C57BL/6 mice (6-8 weeks old).
(§1) Liver tissues were treated with PBS and homogenized with a FastPrep machine, 3 cycles of 5 m/s×15 s. Homogenates from the PBS-treated control animals was pooled and used for standard curve preparation. Samples were extracted into a deep well plate with 250 μL of an internal suitability standard. Plates were centrifuged for 15 min at 4° C. and 2000 rpm. Analysis was performed using an Agilent 6520 QTOF coupled to an Agilent 1290 UHPLC, using reverse-phase LC separation. Quantitation of the ionizable lipid was by MS/MS against a calibration curve spiked into appropriately matched blank matrix. Calibration used a similar class of synthetic lipid as internal standard.
At various timepoints post-dose, lipid levels were assessed in the liver. Some novel ionizable lipids reported more rapid clearance rates compared to the benchmark (Table 19).

[4] = Particle characteristics of LNPs containing EGFP mRNA and novel ionizable lipids; type: physicochemical; settings: EGFP mRNA LNP 1.6:54.6:32.8:10.9
Procedure: The lipid solution contains 4 components: a PEG-conjugated lipid, an ionizable lipid, cholesterol, and a phospholipid (e.g., DSPC). Lipid stocks were prepared using the lipid identities and molar ratios as described, to achieve a total concentration of ˜7 mg/mL in 100% ethanol. […] Equal volumes of the lipid and nucleic acid solutions were blended at a flow rate of 400 mL/min through a T-connector, and diluted with ˜4 volumes of PBS, pH 7.4. Formulations were placed in Slide-A-Lyzer dialysis units (MWCO 10,000) and dialyzed overnight against 10 mM Tris, 500 mM NaCl, pH 8 buffer. Following dialysis, the formulations were concentrated to ˜0.6 mg/mL using VivaSpin concentrator units (MWCO 100,000) and dialyzed overnight against 5 mM Tris, 10% sucrose, pH 8 buffer. Formulations were filtered through a 0.2 μm syringe filter (PES membrane). Nucleic acid concentration was determined by the RiboGreen assay. Particle size and polydispersity were determined using a Malvern Nano Series Zetasizer.
LNP formulations containing novel ionizable lipids all produced stable particles with high encapsulation efficiency (Tables 20-23).

[5] = Parent ionizable lipid remaining in liver at 24 h after EGFP mRNA LNP (LC-MS); type: in vivo; settings: 24 h after IV 0.5 mg/kg EGFP mRNA LNP, female BALB/c mice (n = 4)
Procedure: as §1
At 24 h post-dose, some treatment groups reported lower levels of novel ionizable lipid in mouse liver compared to the benchmark (Tables 28-31).

[6] = system: EGFP expression in the liver; test: EGFP expression in liver after intravenous EGFP mRNA LNP (ELISA); settings: 0.5 mg/kg IV, 24 h post-IV administration, BALB/c mice (n = 4)

CCCCCCCCCCC(CCCCCCC(=O)OCCC(CCCCC)CCCCC)N(CCCCCCCC(=O)OCCC(CCCCC)CCCCC)C(=O)CCCN(C)C (stereo not shown) [Compound 67]
Luc Activity [1]: 1.31E+08 pg/g liver | Parent ionizable lipid remaining in liver, Average [2]: 31.32 nmol/g liver | Parent ionizable lipid remaining in liver, Average ([3]; 0.25 h post-dose): 12.37 nmol/g liver | Parent ionizable lipid remaining in liver, Average ([3]; 1 h post-dose): 21.11 nmol/g liver | Parent ionizable lipid remaining in liver, Average ([3]; 3 h post-dose): 16.12 nmol/g liver | Parent ionizable lipid remaining in liver, Average ([3]; 6 h post-dose): 10.82 nmol/g liver | Parent ionizable lipid remaining in liver, Average ([3]; 24 h post-dose): 11.31 nmol/g liver | Parent ionizable lipid remaining in liver, Average ([3]; 168 h post-dose): 0.72 nmol/g liver

CCCCCCCCCCN(C(=O)CCCN(C)C)C(CCCCCCCCC)CCCCC(F)(F)C(=O)OC(CCCCC)CCCCC (stereo not shown) [Compound 108, Undecan-6-yl 7-(N-decyl-4-(dimethylamino)butanamido)-2,2-difluorohexadecanoate]
Final Product % EE ([4]; Table 22): 95% | Final Product PDI ([4]; Table 22): 0.07 | Final Product Z-avg ([4]; Table 22): 80 nm | Parent ionizable lipid remaining in liver, Average ([5]; Table 30): 3.86 nmol/g liver | EGFP ([6]; Table 26): 5.41E+07 pg/g liver

CCCCCCCCCCN(C(=O)CCCN(C)C)C(CCCCCCCCC)CCCCC(F)(F)C(=O)OC(CCCCCCCC)CCCCCCCC (stereo not shown) [Compound 110, Heptadecan-9-yl 7-(N-decyl-4-(dimethylamino)butanamido)-2,2-difluorohexadecanoate]
Final Product % EE ([4]; Table 22): 98% | Final Product PDI ([4]; Table 22): 0.11 | Final Product Z-avg ([4]; Table 22): 67 nm | Parent ionizable lipid remaining in liver, Average ([5]; Table 30): 33.07 nmol/g liver | EGFP ([6]; Table 26): 4.01E+07 pg/g liver

CCCCCCCCCCN(C(=O)CCCN(C)C)C(CCCCCCCCC)CCCCCCC(F)C(=O)OC(CCCCC)CCCCC (stereo not shown) [Compound 112, Undecan-6-yl 9-(N-decyl-4-(dimethylamino)butanamido)-2-fluorooctadecanoate]
Final Product % EE ([4]; Table 22): 95% | Final Product PDI ([4]; Table 22): 0.08 | Final Product Z-avg ([4]; Table 22): 82 nm | Parent ionizable lipid remaining in liver, Average ([5]; Table 30): 1.73 nmol/g liver | EGFP ([6]; Table 26): 4.78E+07 pg/g liver

CCCCCCCCCCN(C(=O)CCCN(C)C)C(CCCCCCCCC)CCCCCCC(F)C(=O)OC(CCCCCC)CCCCCC (stereo not shown) [Compound 113, Tridecan-7-yl 9-(N-decyl-4-(dimethylamino)butanamido)-2-fluorooctadecanoate]
Final Product % EE ([4]; Table 22): 98% | Final Product PDI ([4]; Table 22): 0.05 | Final Product Z-avg ([4]; Table 22): 72 nm | Parent ionizable lipid remaining in liver, Average ([5]; Table 30): 4.68 nmol/g liver | EGFP ([6]; Table 26): 3.45E+07 pg/g liver

CCCCCCCCCCN(C(=O)CCCN(C)C)C(CCCCCCCCC)CCCCCCC(F)C(=O)OC(CCCCCCC)CCCCCCC (stereo not shown) [Compound 114, Pentadecan-8-yl 9-(N-decyl-4-(dimethylamino)butanamido)-2-fluorooctadecanoate]
Final Product % EE ([4]; Table 22): 98% | Final Product PDI ([4]; Table 22): 0.08 | Final Product Z-avg ([4]; Table 22): 73 nm | Parent ionizable lipid remaining in liver, Average ([5]; Table 30): 12.79 nmol/g liver | EGFP ([6]; Table 26): 4.29E+07 pg/g liver

CCCCCCCCCCC(CCCCCCC(=O)OC(CCCCCC)CCCCCC)N(CCCCCCC(F)(F)C(=O)OC(CCCCCC)CCCCCC)C(=O)CCCN(C)C (stereo not shown) [Compound 116, Tridecan-7-yl 8-(N-(7,7-difluoro-8-oxo-8-(tridecan-7-yloxy)octyl)-4-(dimethylamino)-butanamido)octadecanoate]
Final Product % EE ([4]; Table 22): 98% | Final Product PDI ([4]; Table 22): 0.09 | Final Product Z-avg ([4]; Table 22): 75 nm | Parent ionizable lipid remaining in liver, Average ([5]; Table 30): 60.05 nmol/g liver | EGFP ([6]; Table 26): 2.93E+07 pg/g liver

CCCCCCCCCCC(CCCCCCC(=O)OC(CCCCCCC)CCCCCCC)N(CCCCCCC(F)(F)C(=O)OC(CCCCCCC)CCCCCCC)C(=O)CCCN(C)C (stereo not shown) [Compound 117, Pentadecan-8-yl 8-(N-(7,7-difluoro-8-oxo-8-(pentadecan-8-yloxy)octyl)-4-(dimethylamino)butanamido)octadecanoate]
Final Product % EE ([4]; Table 22): 99% | Final Product PDI ([4]; Table 22): 0.06 | Final Product Z-avg ([4]; Table 22): 80 nm | Parent ionizable lipid remaining in liver, Average ([5]; Table 30): 49.53 nmol/g liver | EGFP ([6]; Table 26): 3.15E+07 pg/g liver

CCCCCCCCCCC(CCCCCCC(=O)OC(CCCCCCCC)CCCCCCCC)N(CCCCCCC(F)(F)C(=O)OC(CCCCCCCC)CCCCCCCC)C(=O)CCCN(C)C (stereo not shown) [Compound 118, Heptadecan-9-yl 8-(N-(7,7-difluoro-8-(heptadecan-9-yloxy)-8-oxooctyl)-4-(dimethylamino)butanamido)octadecanoate]
Final Product % EE ([4]; Table 22): 98% | Final Product PDI ([4]; Table 22): 0.06 | Final Product Z-avg ([4]; Table 22): 83 nm | Parent ionizable lipid remaining in liver, Average ([5]; Table 30): 62.81 nmol/g liver | EGFP ([6]; Table 26): 1.86E+07 pg/g liver

CCCCCCCCCCC(CCCCCCCC(=O)OCC(CCCCCC)CCCCCCCC)N(CCCCCCCCCC)C(=O)CCN(C)C (stereo not shown) [Compound 119, 2-Hexyldecyl 9-(N-decyl-3-(dimethylamino)propanamido)nonadecanoate]
Final Product % EE ([4]; Table 22): 97% | Final Product PDI ([4]; Table 22): 0.09 | Final Product Z-avg ([4]; Table 22): 73 nm | Parent ionizable lipid remaining in liver, Average ([5]; Table 30): 25.25 nmol/g liver | EGFP ([6]; Table 26): 1.60E+07 pg/g liver

CCCCCCCCCCN(C(=O)CCCN(C)C)C(CCCCCCCCC)CCCCC(F)C(=O)OCC(CCCCCC)CCCCCCCC (stereo not shown) [Compound 120, 2-Hexyldecyl 7-(N-decyl-4-(dimethylamino)butanamido)-2-fluorohexadecanoate]
Final Product % EE ([4]; Table 23): 99% | Final Product PDI ([4]; Table 23): 0.15 | Final Product Z-avg ([4]; Table 23): 69 nm | Parent ionizable lipid remaining in liver, Average ([5]; Table 31): 4.8 nmol/g liver | EGFP ([6]; Table 27): 1.90E+07 pg/g liver

CCCCCCCCCCN(C(=O)CCCN(C)C)C(CCCCCCCCC)CCCCC(F)C(=O)OC(CCCCCC)CCCCCC (stereo not shown) [Compound 121, Tridecan-7-yl 7-(N-decyl-4-(dimethylamino)butanamido)-2-fluorohexadecanoate]
Final Product % EE ([4]; Table 23): 99% | Final Product PDI ([4]; Table 23): 0.10 | Final Product Z-avg ([4]; Table 23): 77 nm | Parent ionizable lipid remaining in liver, Average ([5]; Table 31): 2.1 nmol/g liver | EGFP ([6]; Table 27): 3.81E+07 pg/g liver

CCCCCCCCCCN(C(=O)CCCN(C)C)C(CCCCCCCCC)CCCCC(F)C(=O)OC(CCCCCCC)CCCCCCC (stereo not shown) [Compound 122, Pentadecan-8-yl 7-(N-decyl-4-(dimethylamino)butanamido)-2-fluorohexadecanoate]
Final Product % EE ([4]; Table 23): 100% | Final Product PDI ([4]; Table 23): 0.13 | Final Product Z-avg ([4]; Table 23): 70 nm | Parent ionizable lipid remaining in liver, Average ([5]; Table 31): 6.3 nmol/g liver | EGFP ([6]; Table 27): 2.35E+07 pg/g liver

CCCCCCCCCCN(C(=O)CCCN(C)C)C(CCCCCCCCC)CCCCC(F)C(=O)OC(CCCCCCCC)CCCCCCCC (stereo not shown) [Compound 123, Heptadecan-9-yl 7-(N-decyl-4-(dimethylamino)butanamido)-2-fluorohexadecanoate]
Final Product % EE ([4]; Table 23): 99% | Final Product PDI ([4]; Table 23): 0.15 | Final Product Z-avg ([4]; Table 23): 73 nm | Parent ionizable lipid remaining in liver, Average ([5]; Table 31): 10.5 nmol/g liver | EGFP ([6]; Table 27): 3.94E+07 pg/g liver
